Laboratory results as given in ChEMBL document CHEMBL1136177, “Neuroprotective or neurotoxic activity of 1-methyl-1,2,3,4-tetrahydroisoquinoline and related compounds” (Bioorg Med Chem Lett, 2003).

Test: Neurotoxicity against human neuroblastoma SH-SY5Y cells using MTT dye conversion assay

| Compound | CC50 |
| --- | --- |
| CC1NCCc2c(O)cccc21 (stereo not drawn) | 3380 µM |
| COc1cc2c(cc1OC)C(C)NCC2 (stereo not drawn) | 2730 µM |
| CC1NCCc2ccc(O)cc21 (stereo not drawn) | 4150 µM |
| CC1NCCc2cc(O)c(O)cc21 (stereo not drawn) | 34 µM |
| COc1ccc2c(c1)CCNC2C (stereo not drawn) | 2790 µM |
| CC1NCCc2cc(O)ccc21 (stereo not drawn) | 3630 µM |
| COc1ccc2c(c1)C(C)NCC2 (stereo not drawn) | 1390 µM |
| COc1cccc2c1CCNC2C (stereo not drawn) | 2450 µM |
